Tests used:
MATE1 = target: T1, MATE1 (Homo sapiens, UniProt Q96FL8); experiment: Preclinical transporter substrate assessment (unpublished); format: in vitro ADME
T1 sequence (Q96FL8 1-570): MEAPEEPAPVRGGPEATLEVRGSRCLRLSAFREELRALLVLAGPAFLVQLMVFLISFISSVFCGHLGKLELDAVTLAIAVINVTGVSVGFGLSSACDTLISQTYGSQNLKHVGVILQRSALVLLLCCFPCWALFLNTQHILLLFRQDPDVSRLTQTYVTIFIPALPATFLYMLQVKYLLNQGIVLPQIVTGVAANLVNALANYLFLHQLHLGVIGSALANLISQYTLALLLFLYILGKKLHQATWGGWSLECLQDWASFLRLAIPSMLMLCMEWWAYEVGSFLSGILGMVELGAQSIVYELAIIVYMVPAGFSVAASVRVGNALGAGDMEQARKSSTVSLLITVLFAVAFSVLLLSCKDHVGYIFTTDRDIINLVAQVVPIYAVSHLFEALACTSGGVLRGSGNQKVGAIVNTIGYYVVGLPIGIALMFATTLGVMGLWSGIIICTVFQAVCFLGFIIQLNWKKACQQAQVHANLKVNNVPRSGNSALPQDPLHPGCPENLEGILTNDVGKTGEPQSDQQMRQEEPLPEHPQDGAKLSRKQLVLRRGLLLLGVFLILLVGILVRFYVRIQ

[1] = HSK7653 PBPK model development and fitting (SimCYP); design: species or system human; settings: Fitted (based on in vivo data)
Excerpt: (§1) The development of the DLM was complex.
In this manuscript, we constructed the ADAM absorption model using the dissolution profile method and DLM method, respectively. The same disposition model was severally coupled with these two different absorption models to capture the absorption and disposition characteristics of HSK7653 in vivo. Here, we collected the CLint_hep and CLR from in vitro experimental results and in vivo clinical trial data without further optimization. […] Therefore, the disposition model of HSK7653 could accurately capture the elimination characteristics of HSK7653 in vivo. […] Furthermore, the models were also validated with PK data from a multiple dose clinical study (CTR20191549). […] Accordingly, the mechanism driven HSK7653 PBPK model can be used to simulate untested scenarios in specific populations.

OCT3 = target: T2, OCT3 (Homo sapiens, UniProt O75751); experiment: Preclinical transporter substrate assessment (unpublished); format: in vitro ADME
T2 sequence (O75751 1-556): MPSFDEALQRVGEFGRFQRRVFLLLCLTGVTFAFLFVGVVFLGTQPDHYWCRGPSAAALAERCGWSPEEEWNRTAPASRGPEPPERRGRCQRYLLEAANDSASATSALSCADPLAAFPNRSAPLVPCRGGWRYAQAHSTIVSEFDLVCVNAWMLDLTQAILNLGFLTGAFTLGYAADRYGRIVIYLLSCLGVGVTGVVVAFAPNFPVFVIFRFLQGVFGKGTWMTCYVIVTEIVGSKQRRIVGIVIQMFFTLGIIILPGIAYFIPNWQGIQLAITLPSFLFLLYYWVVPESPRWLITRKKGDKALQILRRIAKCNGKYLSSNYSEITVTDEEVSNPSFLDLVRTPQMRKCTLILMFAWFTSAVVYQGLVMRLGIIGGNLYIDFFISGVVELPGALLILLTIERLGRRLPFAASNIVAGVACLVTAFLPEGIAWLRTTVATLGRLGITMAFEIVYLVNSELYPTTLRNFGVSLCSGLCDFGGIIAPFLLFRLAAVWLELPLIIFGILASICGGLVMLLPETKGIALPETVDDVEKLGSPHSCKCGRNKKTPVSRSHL

[2] = Bioavailability in beagle dogs (unpublished); settings: dog, in vivo, oral
[3] = Dissolution profile of HSK7653 tablets at pH 4.5 acetum; format: physicochemical
Excerpt: as §1

[4] = Renal clearance from in vivo clinical study; settings: human, oral; Measured (in vivo); read-out: CLR (renal clearance) (converted)
Excerpt: as §1

Transporter substrate assessment (MATE1): not a common transport substrate
Biliary CLint (CLint_bile) [1]: 0.025 μL/min/10^6
Transporter substrate assessment (OCT3): not a common transport substrate
bioavailability [2]: 70.9%
Fasted Dissolution (%) ([3]; time 0.167 h): 70.52%
Fasted Dissolution (%) ([3]; time 0.333 h): 95.97%
Fasted Dissolution (%) ([3]; time 0.50 h): 100.0%
CL renal [4]: 6.22 mL/min
SMILES: CS(=O)(=O)n1cc2c(n1)CN([C@@H]1C[C@H](N)[C@@H](c3cc(F)ccc3F)O[C@@H]1C(F)(F)F)C2 [HSK7653]

— article PMC10485820 (European Journal of Pharmaceutical Sciences, 2023)
